“And” between values parts separate entries of the source, which are not always exact repeats. Identical values can stand only once.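 Grown in 96-well plates, cells were treated for 48 hours with each compound at five concentrations. Insufficient inhibition: endpoint recorded as highest concentration tested. GI50 = concentration required for 50% inhibition of growth. TGI is the concentration that stops growth completely.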
tested on: MDA-MB-468 breast; assay: DTP human tumour cell line panel, 48 h

Q: With `CCCCCCCCCCC[C@@H](C[C@H]1OC(=O)[C@H]1CCCCCC)OC(=O)[C@@H](CC(C)C)NC=O` as the molecule, how does the GI50 read?
A: Its GI50 is 14.1 µM.

Q: What about the TGI of the same molecule?
A: The TGI was 48.3 µM.

Q: With `O=c1[nH]c(Sc2sc3ccc(Cl)cc3c2CBr)nc(=S)[nH]1` as the molecule, how does the GI50 read?
A: Its GI50 is over 68.8 µM.

Q: And the TGI?
A: The TGI was over 100 µM.

Q: Which results are given for `O=C(CCN1CCCC1)Nc1ccc2c(NCCc3ccccc3)c3ccccc3nc2c1`?
A: GI50: 0.284 µM; TGI: 1.04 µM

Q: What does the source list for `O=C(Nc1ccc(Nc2ccncc2)cc1)c1ccc(Nc2ccnc3ccc([N+](=O)[O-])cc23)cc1[N+](=O)[O-]`?
A: GI50: 1.75 µM; TGI: 18.3 µM

Q: For `CN1CCN(c2ccc3nc(-c4[nH]ncc4Nc4ncnc5c4OCCCN5)[nH]c3c2)CC1`, which GI50 is on record?
A: The GI50 was under 0.01 µM.

Q: What about the TGI of the same molecule?
A: The TGI was 0.0211 µM.

Q: `COc1ccc(-c2nnc(SCC(=O)Nc3ccc(C(=O)/C=C/c4cc(OC)c(OC)c(OC)c4)cc3)n2-c2ccccc2)cc1OC` was tested. Which GI50 did it give?
A: Its GI50 is 4.61 µM.

Q: What about the TGI of the same molecule?
A: Its TGI is over 10 µM.

Q: Which results are given for `COc1cc(C(=O)O/N=C(\N)Cc2cccc3ccccc23)cc(OC)c1OC`?
A: GI50: 15.7 µM; TGI: 33.2 µM

Q: Which results are given for `Fc1ccc([C@@H]2CCNC[C@H]2COc2ccc3c(c2)OCO3)cc1`?
A: GI50: 5.33 µM; TGI: 21 µM

Q: How did the GI50 turn out when `O=C1/C(=C/c2ccc(Cl)cc2)CN(C(=O)CCN2CCC(=NO)CC2)C/C1=C\c1ccc(Cl)cc1` was run?
A: The GI50 was 0.833 µM.

Q: What about the TGI of the same molecule?
A: The TGI was 2.51 µM.

Q: With `CNC(=O)c1cc(Oc2ccc3nc(N[C@@H]4CCCC[C@H]4O)sc3c2)ccn1` as the molecule, how does the GI50 read?
A: The GI50 was 23.7 µM.

Q: And the TGI?
A: The TGI was over 89.7 µM.

Q: How did the GI50 turn out when `O=c1c2c(=NCCN3CCCC3)cc3c(=O)n(CCCN4CCOCC4)c(=O)c4ccc(c(O)n1CCCN1CCOCC1)c2c4-3` was run?
A: Its GI50 is 0.109 µM.

Q: What about the TGI of the same molecule?
A: Its TGI is 0.335 µM.

Q: How did the GI50 turn out when `C[C@@H](Oc1cc(-n2cnc3ccc(OCC4CCN(C)CC4)cc32)sc1C(N)=O)c1ccccc1Cl` was run?
A: Its GI50 is 0.0093 µM.

Q: What about the TGI of the same molecule?
A: Its TGI is 0.22 µM.

Q: Which results are given for `COc1cc(-c2nc3cc(Cl)c(Cl)cc3[nH]2)ccc1OCC(=O)N=Nc1c(O)[nH]c2ccc(Cl)cc12`?
A: GI50: 0.256 µM; TGI: 0.697 µM

Q: How did the GI50 turn out when `Clc1ccc2nc(Cl)c3ccccc3c2c1` was run?
A: The GI50 was 10.5 µM.

Q: What about the TGI of the same molecule?
A: The TGI was 38.7 µM.

Q: `OCCn1cc(-c2cnc3nnn(Cc4ccc5ncccc5c4)c3n2)cn1` was tested. Which GI50 did it give?
A: The GI50 was 98.8 µM.

Q: What about the TGI of the same molecule?
A: The TGI was over 100 µM.

Q: `COc1cc(/C(=C2/O[C@@H]([C@H]3COC(C)(C)O3)[C@H]3OC(C)(C)O[C@@H]23)c2ccc3c(c2)OCO3)cc(OC)c1OC` was tested. Which GI50 did it give?
A: The GI50 was 7.93 µM.

Q: What about the TGI of the same molecule?
A: Its TGI is over 25 µM.

Q: With `O=C(Nc1ccc(Oc2ccc(NC(=O)Nc3ccc([N+](=O)[O-])cc3)cc2)cc1)Nc1ccc([N+](=O)[O-])cc1` as the molecule, how does the GI50 read?
A: The GI50 was 1.56 µM.

Q: What about the TGI of the same molecule?
A: The TGI was 14.1 µM.

Q: How did the GI50 turn out when `CCOC(=O)c1ccc(N(C=O)CCC(=O)CCl)cc1` was run?
A: The GI50 was 0.382 µM.

Q: And the TGI?
A: The TGI was 2.13 µM.

Q: For `CCOC(=O)Cn1c(-c2nonc2NC(=O)c2ccccc2F)nc2ccccc21`, which GI50 is on record?
A: The GI50 was 21.8 µM.

Q: And the TGI?
A: Its TGI is over 100 µM.

Q: How did the GI50 turn out when `c1ccc2cc(C[n+]3ccn(Cc4ccc5ccccc5n4)c3)ccc2c1` was run?
A: The GI50 was 0.0807 µM and 0.611 µM.

Q: What about the TGI of the same molecule?
A: Its TGI is 0.496 µM and 4.14 µM.

Q: For `NC(=O)c1sc(-n2cnc3ccc(C(F)(F)F)cc32)cc1OCc1ccccc1Br`, which GI50 is on record?
A: The GI50 was 0.349 µM.

Q: What about the TGI of the same molecule?
A: Its TGI is 0.977 µM.

Q: Which GI50 does the source give for `COc1ccc(C2=N[C@@H](c3ccc(Cl)cc3)[C@@H](c3ccc(Cl)cc3)N2C(=O)N2CCNC(=O)C2)c(OC(C)C)c1` here?
A: The GI50 was 12.2 µM and 11.5 µM and 12.7 µM.

Q: What about the TGI of the same molecule?
A: The TGI was 25.2 µM and 24.5 µM and 26.6 µM.

Q: How did the GI50 turn out when `COc1cc(-c2nc(-c3ccc(-c4nc5ccc(F)cc5[nH]4)cc3)no2)cc(OC)c1OC` was run?
A: Its GI50 is 3.01 µM.

Q: And the TGI?
A: The TGI was 17.5 µM.

Q: For `COc1ccc(C(=O)/C=C/c2cc(-c3ccc4c(c3)OCO4)n[nH]2)cc1OC`, which GI50 is on record?
A: Its GI50 is 1.86 µM.

Q: What about the TGI of the same molecule?
A: The TGI was 4.52 µM.

Q: How did the GI50 turn out when `CCCCCCCCCCCC1=NC(C)(C)CN1CC(C)O` (stereo not drawn) was run?
A: The GI50 was 2.11 µM.

Q: What about the TGI of the same molecule?
A: Its TGI is 10.9 µM.

Q: Which results are given for `COc1ccc2c(c1)[nH]c(=O)c1c3cc(OC)c(OC)cc3cn21`?
A: GI50: 0.0208 µM; TGI: 0.0492 µM

Q: `CCCCCCCCNC(C)C(O)c1ccc(SC(C)C)cc1` (stereo not drawn) was tested. Which GI50 did it give?
A: Its GI50 is 1.57 µM.

Q: What about the TGI of the same molecule?
A: The TGI was 3.24 µM.

Q: Which results are given for `C#C[C@]1(O)CC[C@H]2[C@@H]3CC=C4c5sc(NCc6ccccc6)nc5CC[C@]4(C)[C@H]3CC[C@@]21C`?
A: GI50: 4.4 µM; TGI: 18.3 µM

Q: Which GI50 does the source give for `Oc1ccc(Oc2cnc3cc(Cl)ccc3n2)cc1` here?
A: The GI50 was 26.3 µM.

Q: And the TGI?
A: The TGI was over 100 µM.

Q: With `O=C(NO)c1ccc(Cn2c(=O)n(-c3ccccc3)c(=O)c3ccccc32)cc1` as the molecule, how does the GI50 read?
A: The GI50 was 0.542 µM.

Q: And the TGI?
A: The TGI was 2.23 µM.

Q: Which results are given for `CC(C)=CC(=O)N[C@@H]1CC2CCC3C(CC[C@@]4(C)C3CC[C@@H]4C(C)N(C)C)[C@@]2(C)C[C@@H]1O` (stereo partly drawn)?
A: GI50: 1.54 µM; TGI: 8.98 µM

Q: For `Nc1nccc2c1ccn2-c1cccc(NC(=O)c2ccc(N3CCOCC3)c(C(F)(F)F)c2)c1`, which GI50 is on record?
A: Its GI50 is 0.331 µM.

Q: And the TGI?
A: The TGI was 3.19 µM.

Q: What does the source list for `CC[C@H](C)[C@H](NC(=O)NC(C)(C)C)C(=O)N(C)[C@H](C[C@@H](OC(C)=O)c1nc(C(=O)N[C@@H](Cc2ccccc2)C[C@H](C)C(=O)OC)cs1)C(C)C`?
A: GI50: 0.0797 µM; TGI: 0.441 µM

Q: Which GI50 does the source give for `O=C1NC(=O)[C@@H](c2c[nH]c3ccccc23)[C@@H]1c1c[nH]c2ccccc12` here?
A: Its GI50 is over 25 µM.

Q: And the TGI?
A: The TGI was over 25 µM.

Q: `O=C(c1nn(-c2ccc(Cl)cc2)cc1O)n1nc(C(F)(F)F)cc1-c1ccccc1` was tested. Which GI50 did it give?
A: Its GI50 is 4.5 µM.

Q: What about the TGI of the same molecule?
A: The TGI was over 100 µM.

Q: Which GI50 does the source give for `COc1cnc2c(c1)C(=O)c1c-2n(CCCNCCN2CCOCC2)c(=O)c2cc([N+](=O)[O-])ccc12` here?
A: Its GI50 is 0.124 µM.

Q: And the TGI?
A: The TGI was 0.605 µM.

Q: With `CC[C@H](C)[C@H]1NC(=O)[C@@H]([C@H](O)C(C)C)NC(=O)[C@@H](C)N(C)C(=O)[C@H](C)N(C)C(=O)[C@H](CC(C)C)NC(=O)[C@H](CC(C)C)N(C)C(=O)[C@H](C)N(C)C1=O` as the molecule, how does the GI50 read?
A: The GI50 was 0.536 µM.

Q: What about the TGI of the same molecule?
A: Its TGI is 10.5 µM.

Q: For `CCOC(=O)c1ccccc1SC(C[N+](=O)[O-])c1ccccc1` (stereo not drawn), which GI50 is on record?
A: The GI50 was 1.71 µM.

Q: And the TGI?
A: Its TGI is 4.06 µM.

Q: How did the GI50 turn out when `C=C(C)[C@@H]1CC[C@]2(C(=O)O)CC[C@]3(C)[C@H](CC[C@@H]4[C@@]5(C)C/C(=C/c6cccc(I)c6)C(=O)C(C)(C)[C@@H]5CC[C@]43C)[C@@H]12` was run?
A: Its GI50 is 2.45 µM.

Q: What about the TGI of the same molecule?
A: The TGI was 11.1 µM.

Q: What does the source list for `Cc1cc(NCc2cc(Nc3ccnc4cc(Cl)ccc34)ccc2F)nc(N2CCSCC2)n1`?
A: GI50: 1.92 µM; TGI: 4.77 µM

Q: For `COC1C(CO)OC(n2c3c(Cl)cccc3c3c4c(c5c6cccc(Cl)c6[nH]c5c32)C(=O)NC4=O)C(O)C1O` (stereo not drawn), which GI50 is on record?
A: The GI50 was 0.0743 µM.

Q: And the TGI?
A: The TGI was 0.352 µM.

Q: Which GI50 does the source give for `CCSc1ccc([C@@H]2[C@@H](N)C(=O)N2c2cc(OC)c(OC)c(OC)c2)cc1` here?
A: The GI50 was 0.0775 µM.

Q: What about the TGI of the same molecule?
A: Its TGI is over 100 µM.

Q: What does the source list for `COc1ccc(-c2nc(-c3ccccn3)c(-c3ccccn3)n2CC(C)C)cc1OC1CCCC1`?
A: GI50: 38.4 µM; TGI: 136 µM

Q: How did the GI50 turn out when `O=C1CC(c2ccsc2)c2snc(-c3ccc(Cl)cc3)c2N1` (stereo not drawn) was run?
A: Its GI50 is 0.291 µM.

Q: What about the TGI of the same molecule?
A: The TGI was 1.72 µM.

Q: How did the GI50 turn out when `CCN(CC)CCOc1ccc(C(=C(c2ccccc2)C2CCCC2)c2ccc(OCCN(CC)CC)cc2)cc1` was run?
A: Its GI50 is 2.3 µM.

Q: What about the TGI of the same molecule?
A: Its TGI is 5.51 µM.

Q: How did the GI50 turn out when `O=C(O)c1cn(C2CC2)c2cc(N3CCNCC3)c(F)cc2c1=O` was run?
A: Its GI50 is over 100 µM.

Q: What about the TGI of the same molecule?
A: Its TGI is over 100 µM.

Q: How did the GI50 turn out when `Cc1ccc(-c2cc(-c3ccc(C)cc3)nc(N3CCN(CCNc4ccnc5cc(Cl)ccc45)CC3)n2)cc1` was run?
A: The GI50 was 1.74 µM.

Q: And the TGI?
A: The TGI was 8.3 µM.

Q: What does the source list for `CN(C)c1ccc(Nc2c3ccccc3nc3cc(NC(=O)CCN4CCCC4)ccc23)cc1`?
A: GI50: 0.29 µM; TGI: 1.13 µM

Q: Which GI50 does the source give for `COc1ccc(/C=N\NC(=O)c2ccc3nc(-c4ccc(Cl)cc4)[nH]c3c2)cc1` here?
A: The GI50 was 1.94 µM.

Q: And the TGI?
A: The TGI was 4.55 µM.
